Data taken from patent US10829517B2, “Method for treating or/and preventing calcium deficiency-related diseases” (National Chung Hsing University, priority 2017, dated 2020).
Ends that are not written are not given here.

Assays:
[1] = molecular target: T1, calcium ion channel V6 (Homo sapiens, UniProt Q9H1D0); experiment: Caco-2 calcium uptake with calcium ion channel V6 inhibitor ruthenium red; assay type: cell-based; details: 6 mM calcium ions, 400 μM peptide of SEQ ID No. 1
T1 construct: endogenous in cells; host or cells: Caco-2
T1 sequence (Q9H1D0 1-765): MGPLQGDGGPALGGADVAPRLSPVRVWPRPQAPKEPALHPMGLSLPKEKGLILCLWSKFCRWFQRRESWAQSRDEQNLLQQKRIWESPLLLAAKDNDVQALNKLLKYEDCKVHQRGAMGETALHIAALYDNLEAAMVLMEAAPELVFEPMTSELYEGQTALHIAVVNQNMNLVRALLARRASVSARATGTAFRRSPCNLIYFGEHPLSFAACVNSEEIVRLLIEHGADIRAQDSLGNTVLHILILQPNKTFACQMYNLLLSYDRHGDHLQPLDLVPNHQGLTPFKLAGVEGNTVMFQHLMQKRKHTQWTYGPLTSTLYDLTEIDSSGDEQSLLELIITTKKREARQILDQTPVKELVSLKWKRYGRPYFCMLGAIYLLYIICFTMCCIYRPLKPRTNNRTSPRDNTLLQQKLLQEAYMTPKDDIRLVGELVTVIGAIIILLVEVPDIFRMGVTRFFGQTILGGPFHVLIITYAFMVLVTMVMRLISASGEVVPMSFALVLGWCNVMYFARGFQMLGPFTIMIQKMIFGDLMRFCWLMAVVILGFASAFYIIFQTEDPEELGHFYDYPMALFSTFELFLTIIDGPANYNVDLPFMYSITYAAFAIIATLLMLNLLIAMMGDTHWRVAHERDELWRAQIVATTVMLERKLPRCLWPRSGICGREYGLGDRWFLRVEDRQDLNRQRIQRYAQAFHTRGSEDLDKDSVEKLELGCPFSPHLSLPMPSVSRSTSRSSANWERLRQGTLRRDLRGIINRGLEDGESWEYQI
Description: The steps were the same as those described in Example 5, except that the calcium ion channel V6 inhibitor: ruthenium red (RUR) was administered at the 154th second.

[2] = test system: Caco-2 cells; experiment: Calcium uptake in Fluo-3-AM loaded Caco-2 cells (fluorescence intensity); assay type: cell-based, human
Description: The Caco-2 cell monolayer was cultured in a 10 cm2 culture dish containing DEME medium, and the cells were separated by TrypLE (Invitrogen, Carlsbad, Calif.) and washed several times with a phosphate-free KRH (Krebs Ringer Heps) solution. 5 μL of 1 mM Fluo-3-AM dye and 20% (w/v) thermally reversible hydrogel (Pluronic F-127, RF127) solution were added at 37° C. for about 30 minutes to obtain a Caco-2 cell suspension.
The Caco-2 cell suspension containing Fluo-3-AM dye was thoroughly rinsed in phosphate-free KRH solution and aliquoted, each aliquot containing 5×10^7 cells. After each aliquot was pelletized, the cells were resuspended in 240 μL of the phosphate-free KRH solution, and then transferred to a 96-well plate for use.

[3] = 400 μM peptide, 6 mM calcium ions, compared with 400 μM CPP group and no-peptide group

In the case of `N.N.N.N.N.N.N.N.N.N.N.N.N.N.[Cl-].[Cl-].[Cl-].[Cl-].[Cl-].[Cl-].[O-2].[O-2].[Ru+3].[Ru+3].[Ru+4]` [ruthenium red], the “percentage decrease of peak calcium ion (peak [Ca2+]) compared to the first group” value (“percentage decrease of peak calcium ion” below) ([1]; ruthenium red 10 μM (second group) vs 0 μM) is reported as 41.9%, the “percentage decrease of peak calcium ion” value ([1]; ruthenium red 20 μM (third group) vs 0 μM) is reported as 57.3% and the “percentage decrease of peak calcium ion” value ([1]; ruthenium red 50 μM (fourth group) vs 0 μM) is reported as 72.0%. The “percentage decrease of peak calcium ion” value ([1]; ruthenium red 100 μM (fifth group) vs 0 μM) was 86.7%.
With “SEQ ID No. 2: peptide of SEQ ID No. 1 with the C-terminal 5 amino acids removed (TEVPAINTIASA)” the calcium-absorption promotion ability ([2]; Example 17, FIG. 36, Caco-2 cells) was “have the ability to promote calcium absorption”.
With TEVPAINTIASAEPTVH [SEQ ID No. 1] the “calcium ion concentration (peak [Ca2+]) in Caco-2 cells” value [2, 3] was “significantly increased”, the “fluorescence intensity in Caco-2 cells” value [2, 3] was “significantly higher” and the “fluorescence intensity in Caco-2 cells” value ([2]; at the 442th second, 0 mM calcium ions (first group), 400 μM peptide) was 7,059,148. The “fluorescence intensity in Caco-2 cells” value ([2]; at the 442th second, 0.3 mM calcium ions (second group), 400 μM peptide) was 9,780,517, the “fluorescence intensity in Caco-2 cells” value ([2]; at the 442th second, 0.5 mM calcium ions (third group), 400 μM peptide) was 9,720,348 and the “fluorescence intensity in Caco-2 cells” value ([2]; at the 442th second, 1.5 mM calcium ions (fourth group), 400 μM peptide) was 10,604,175. The “fluorescence intensity in Caco-2 cells” value ([2]; at the 442th second, 3 mM calcium ions (fifth group), 400 μM peptide) was 10,986,171 and the “fluorescence intensity in Caco-2 cells” value ([2]; at the 442th second, 6 mM calcium ions (sixth group), 400 μM peptide) was 10,912,015.
